Test results from patent US20250152605A1, “METHOD AND DRUG FOR TREATING NEURONAL CEROID LIPOFUSCINOSIS” (priority 2021, published 2025).
Entries after “also recorded” stand apart in the source; their conditions may differ.

Experiments:
Cln3 KO mice [1] = assay: Morris water maze; assay type: in vivo, mouse; conditions: 7th day test
Protocol: To test the difference in learning and memory abilities of Cln3 KO mice and wild-type mice, and the effect of Compound G on learning and memory abilities of Cln3 KO mice, a Morris water maze was performed, with specific procedures as follows: the mice to be tested were kept in single cages for more than 1 week to adapt to the environment; the maze used in this study was a circular pool with a diameter of 120 cm and a depth of 40 cm; the pool wall is divided into four quadrants including northeast (NE), northwest (NW), southwest (SW) and southeast (SE) with circles, squares, triangles and crosses respectively. The platform was placed at a fixed position in the SW quadrant with a diameter of 11 cm and a height of 18 cm; milky white water containing titanium dioxide was added to the pool, the amount of added water being just short of the platform is suitable; the water temperature was adjusted to about 22° C.; the mouse was gently put into the water from the designated position shown in Table 5, and the movement of the mouse within 60 seconds was recorded through the video equipment. If the mouse found the platform within 60 seconds, its time to find the platform was recorded; if the mouse could not find the platform within 60 seconds, it was guided to the platform and held for 15 seconds.
The mice were removed from the platform, wiped clean with a dry towel and returned to their cages. Each mouse was trained 4 times a day, with a 30-minute interval between each training, for a total of 6 days, and mice that cannot swim were excluded; on the Day 7, the platform in the water was taken out, and then the mice were gently put into the water from the NE direction, and the movement of the mouse within 60 seconds was recorded with a video equipment. The time it took for the mouse to find the platform for the first time and the time the mouse stayed in the SW quadrant were analyzed and counted using Noldus software. In addition, the experimenter manually counted the number of times the mouse crossed the location of the original platform within 60 seconds.
Starting from day 21 on which the Cln3 KO mice were weaned, treatment of Compound G was continuously provided. […]
First, the mice were trained in the water maze for 6 days, and the time it took for them to find the underwater platform was recorded. […] The time that the mice spent reaching the position of the original platform for the first time, the number of shuttles at the position of the original platform and the time stayed in the quadrant of the original platform were recorded, which characterized whether they have learned the position of the underwater platform through the first 6 days of training.

CLN3^Δex7/8 neurons = assay: Mitochondrial morphology with OMP25-GFP, laser confocal microscope; assay type: cell-based, human
Text: Studies have shown that healthy mitochondria have a short stick-like morphology, with large potential differences across the mitochondrial membrane, which allows efficient generation of ATP that maintains normal cellular function. Damaged mitochondria undergo the process of mitochondrial fission, in which the mitochondria split into a punctate morphology, encapsulated by autophagosome, and transported into lysosomes for degradation. To detect the presence of abnormal mitochondrial morphology in CLN3^Δex7/8 human neurons, a Lentivirus plasmid with green fluorescent protein labeled OMP25 was constructed and used to infect wild-type and CLN3^Δex7/8 human neurons
To test the effect of compound G on mitochondrial homeostasis in CLN3^Δex7/8 neurons, fluorescently labeled mitochondrial outer membrane protein OMP25-GFP was overexpressed in neurons, and the morphological changes of mitochondria were observed by laser confocal microscope. […] The amount of ATP generation in the same number of neurons was tested using Cell Titer Glo reagent.

Cln3 KO mice [2] = assay: Rotarod test (roller experiment); assay type: in vivo, mouse; conditions: 4th day of testing
Protocol: First, the roller experiment was conducted. Treatment of Compound G was continuously provided to the mice after weaned on day 21. When the wild-type mice, the Cln3 KO mice and the Compound G-treated Cln3 KO mice reached 4-5 months of age, roller training for 3 days was conducted, and test was conducted on the 4th day for the motor ability of the mice on the roller.

p62 = p62 transcription (qRT-PCR) and p62 protein level in human neurons; assay type: cell-based
Protocol: (§1) The cells in the cell-culture dish were collected, extracted using AxyPrep Total RNA Mini Prep Kit or Qiagen AxyPrep Total RNA Mini Prep Kit, and the extracted RNA concentration is measured using Nanodrop; the extracted mRNA was reverse transcribed into cDNA by Transgen's EasyScript® One-Step gDNA Removal and cDNA Synthesis SuperMix and the primers used for reverse transcription were Oligo dT primers; the completion of reverse transcription followed by qRT-PCR reaction through PerfectStart™ Green qPCR SuperMix to detect the expression of the target gene; the qRT-PCR reaction was performed on the Bio-Rad CFX96 Real-Time PCR system; see Table 2 and Table 3 for the 20 μL qRT-PCR reaction system and reaction procedures; data analysis was performed in Prism 7 software using the 2^−ΔΔCt process with GAPDH as internal reference for relative quantification of the expression of the target gene.
FIG. 41: Compound G increased intracellular p62 protein levels. (a) 24 hours after treatment of human neurons with Compound G or after KEAP1 knockdown, transcriptional levels of the p62 gene were detected by qRT-PCR (n=3). (b) 24 hours after treatment of human neurons with Compound G or after KEAP1 knockdown, intracellular p62 protein levels were detected by Western blotting and band intensity statistics (n=3) were performed. […]

[3] = tested on: CLN3^Δex7/8 human neurons; assay: Lysotracker staining of CLN3^Δex7/8 human neurons, flow cytometry; assay type: cell-based
Protocol: In analyzing the mean fluorescence intensity of neural stem cells and neuronal staining or single cell establishment of NRK cells, flow cytometry was used: the cell medium was aspirated off, after wash with dPBS once, the digestive enzyme corresponding to the cell type was added to digest into single cells; the supernatant was removed by centrifugation, and the cells were resuspended with 1 mL of fresh medium; the cell suspension with filtered through 40 μm filter membrane and the single cell filtrate was collected; the single cell filtrate was transferred to a flow tube and analyzed or sorted using BD FACS Aria III; in the analysis, the fluorescence intensity of 1×10^4 cells for each sample was analyzed to obtain the mean fluorescence intensity (MFI); for sorting, cells were received in 96 well plates with medium, one cell per well to establish a cell line.
Studies above have shown that CLN3^Δex7/8 human neurons feature lysosomal acidity dysregulation. To investigate the effect of Compound G on lysosomal acidity in CLN3^Δex7/8 neurons, Lysotracker dye was used for staining and flow cytometry was used for analyzing the fluorescence intensity of Lysotracker dye in cells.

[4] = tested on: CLN3^Δex7/8 human neural stem cells; assay: qRT-PCR of autophagy-related and lysosomal genes in human neural stem cells; assay type: cell-based; conditions: 6 hours
Protocol: as §1
The effect of Compound G on the transcription level of the autophagy-related genes and the lysosomal genes was further detected in the induced CLN3^Δex7/8 human neural stem cells and neurons.

**Q.** Which “movement speed of the mice in water” value (Cln3 KO mice [1]) does the source give for `C/C=C1\C(=O)C[C@H]2[C@@H]3CCC4=CC(=O)CC[C@]4(C)[C@H]3CC[C@]12C` [Compound G, (Z)-guggulsterone] here?
**A.** no significant effect

**Q.** And the “number of times they shuttle at the position of the original platform” value (Cln3 KO mice [1])?
**A.** closer to that of the wild-type mice

**Q.** And the “time spent reaching the position of the original platform for the first time” value (Cln3 KO mice [1])?
**A.** effectively shorten

**Q.** And the “time stayed in the quadrant of the original platform” value (Cln3 KO mice [1])?
**A.** extended the time stayed in the quadrant of the original platform to a certain extent

**Q.** And the damaged punctate mitochondria (CLN3^Δex7/8 neurons)?
**A.** significantly reduce the occurrence of damaged punctate mitochondria; also recorded: significantly reduce the appearance of the damaged mitochondria

**Q.** What about the “falling time from the roller” value (Cln3 KO mice [2]) of the same molecule?
**A.** significantly extended

**Q.** And the p62 protein level (p62; 24 hours, Western blotting)?
**A.** increase the p62 protein level

**Q.** What about the “transcription level of p62” value (p62; incubation for 24 hours, qRT-PCR) of the same molecule?
**A.** significantly increase

**Q.** And the “Lysotracker fluorescence intensity in CLN3^Δex7/8 human neurons” value [3]?
**A.** increased significantly

**Q.** What about the “transcription level of the autophagy-related genes or the lysosomal genes” value [4] of the same molecule?
**A.** did not significantly increase
